Test results as given in PubChem BioAssay (NCI).
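Briefly, cells in 96-well plates were exposed to five compound concentrations for 48 h, and endpoints were estimated by linear interpolation. GI50 = concentration required for 50% inhibition of growth. Definition used: TGI = concentration required for complete inhibition of growth.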

Legend:
Experiment in all cases: growth of human tumour cells (NCI), 48 h
[1] = system: SF-539 CNS
[2] = system: NCI-H460 lung
[3] = system: HCC-2998 colon
[4] = system: RPMI-8226 leukemia
[5] = system: OVCAR-3 ovarian
[6] = system: MDA-MB-435
[7] = system: KM12 colon
[8] = system: BT-549 breast
[9] = system: SF-295 CNS
[10] = system: EKVX NSCLC
[11] = system: NCI/ADR-RES ovarian
[12] = system: A498 renal
[13] = system: K-562 leukemia
[14] = system: UACC-257 melanoma
[15] = system: HOP-92 NSCLC
[16] = system: MOLT-4 leukemia
[17] = system: SK-OV-3 ovarian
[18] = system: UACC-62 melanoma
[19] = system: LOX IMVI melanoma
[20] = system: PC-3 prostate
[21] = system: OVCAR-5 ovarian
[22] = system: NCI-H23 lung
[23] = system: RXF 393 renal
[24] = system: IGROV1 ovarian
[25] = system: U251 CNS
[26] = system: HT29 colon
[27] = system: 786-0 renal
[28] = system: HCT-116 colon
[29] = system: HS 578T breast
[30] = system: A549 NSCLC
[31] = system: MALME-3M melanoma
[32] = system: NCI-H226 lung
[33] = system: HL-60(TB) leukemia
[34] = system: DU-145 prostate
[35] = system: SW-620 colon
[36] = system: COLO 205 colon
[37] = system: SK-MEL-5 melanoma
[38] = system: SK-MEL-2 melanoma
[39] = system: MDA-MB-231 breast
[40] = system: CAKI-1 renal
[41] = system: M14 melanoma
[42] = system: SK-MEL-28 melanoma
[43] = system: MCF7 breast
[44] = system: TK-10 renal
[45] = system: ACHN renal
[46] = system: UO-31 renal
[47] = system: HCT-15 colon
[48] = system: HOP-62 NSCLC
[49] = system: NCI-H522 lung
[50] = system: SN12C renal
[51] = system: OVCAR-4 ovarian
[52] = system: SNB-19 CNS
[53] = system: SF-268 CNS
[54] = system: SNB-75 CNS
[55] = system: CCRF-CEM leukemia
[56] = system: OVCAR-8 ovarian
[57] = system: T-47D breast

SMILES: C=CCCCCCCCCC(=O)[O][Sn]([CH2]CCC)([CH2]CCC)[CH2]CCC
- GI50 [1]: 169 nM
- TGI [1]: 332 nM
- GI50 [2]: 152 nM
- TGI [2]: 312 nM
- GI50 [3]: 156 nM
- TGI [3]: 291 nM
- GI50 [4]: 35 nM
- TGI [4]: 278 nM
- GI50 [5]: 147 nM
- TGI [5]: 285 nM
- GI50 [6]: 153 nM
- TGI [6]: 319 nM
- GI50 [7]: 145 nM
- TGI [7]: 300 nM
- GI50 [8]: 140 nM
- TGI [8]: 277 nM
- GI50 [9]: 159 nM
- TGI [9]: 337 nM
- GI50 [10]: 131 nM
- TGI [10]: 320 nM
- GI50 [11]: 163 nM
- TGI [11]: 320 nM
- GI50 [12]: 140 nM
- TGI [12]: 276 nM
- GI50 [13]: 181 nM
- TGI [13]: 457 nM
- GI50 [14]: 144 nM
- TGI [14]: 291 nM
- GI50 [15]: 75 nM
- TGI [15]: 240 nM
- GI50 [16]: 228 nM
- TGI [16]: 833 nM
- GI50 [17]: 149 nM
- TGI [17]: 306 nM
- GI50 [18]: 168 nM
- TGI [18]: 349 nM
- GI50 [19]: 138 nM
- TGI [19]: 278 nM
- GI50 [20]: 187 nM
- TGI [20]: 409 nM
- GI50 [21]: 128 nM
- TGI [21]: 297 nM
- GI50 [22]: 115 nM
- TGI [22]: 254 nM
- GI50 [23]: 99.1 nM
- TGI [23]: 255 nM
- GI50 [24]: 148 nM
- TGI [24]: 335 nM
- GI50 [25]: 165 nM
- TGI [25]: 318 nM
- GI50 [26]: 154 nM
- TGI [26]: 332 nM
- GI50 [27]: 143 nM
- TGI [27]: 275 nM
- GI50 [28]: 133 nM
- TGI [28]: 262 nM
- GI50 [29]: 166 nM
- TGI [29]: 493 nM
- GI50 [30]: 164 nM
- TGI [30]: 322 nM
- GI50 [31]: 135 nM
- TGI [31]: 287 nM
- GI50 [32]: 170 nM
- TGI [32]: 325 nM
- GI50 [33]: 169 nM
- TGI [33]: 464 nM
- GI50 [34]: 150 nM
- TGI [34]: 290 nM
- GI50 [35]: 162 nM
- TGI [35]: 332 nM
- GI50 [36]: 172 nM
- TGI [36]: 371 nM
- GI50 [37]: 148 nM
- TGI [37]: 282 nM
- GI50 [38]: 189 nM
- TGI [38]: 377 nM
- GI50 [39]: 140 nM
- TGI [39]: 304 nM
- GI50 [40]: 112 nM
- TGI [40]: 300 nM
- GI50 [41]: 156 nM
- TGI [41]: 299 nM
- GI50 [42]: 157 nM
- TGI [42]: 296 nM
- GI50 [43]: 137 nM
- TGI [43]: 272 nM
- GI50 [44]: 165 nM
- TGI [44]: 311 nM
- GI50 [45]: 164 nM
- TGI [45]: 310 nM
- GI50 [46]: 132 nM
- TGI [46]: 276 nM
- GI50 [47]: 158 nM
- TGI [47]: 348 nM
- GI50 [48]: 172 nM
- TGI [48]: 346 nM
- GI50 [49]: 141 nM
- TGI [49]: 296 nM
- GI50 [50]: 153 nM
- TGI [50]: 331 nM
- GI50 [51]: 120 nM
- TGI [51]: 251 nM
- GI50 [52]: 198 nM
- TGI [52]: 384 nM
- GI50 [53]: 149 nM
- TGI [53]: 309 nM
- GI50 [54]: 134 nM
- TGI [54]: 326 nM

SMILES: O=C(Cc1ccccc1)NN1C(=O)/C(=C\c2ccc([N+](=O)[O-])cc2)SC1=Nc1ccccc1
- TGI [1]: > 100000 nM
- TGI [2]: > 100000 nM
- TGI [55]: > 100000 nM
- TGI [3]: > 100000 nM
- TGI [4]: > 100000 nM
- TGI [5]: > 100000 nM
- TGI [6]: > 100000 nM
- TGI [7]: > 100000 nM
- TGI [56]: > 100000 nM
- TGI [9]: > 100000 nM
- TGI [10]: > 100000 nM
- TGI [11]: > 100000 nM
- TGI [12]: > 100000 nM
- TGI [13]: > 100000 nM
- TGI [14]: > 100000 nM
- TGI [15]: > 100000 nM
- TGI [16]: > 100000 nM
- TGI [17]: > 100000 nM
- TGI [18]: > 100000 nM
- TGI [21]: > 100000 nM
- TGI [22]: > 100000 nM
- TGI [23]: > 100000 nM
- TGI [24]: > 100000 nM
- TGI [25]: > 100000 nM
- TGI [26]: > 100000 nM
- TGI [27]: > 100000 nM
- TGI [28]: > 100000 nM
- TGI [57]: > 100000 nM
- TGI [29]: > 100000 nM
- TGI [30]: > 100000 nM
- TGI [32]: > 100000 nM
- TGI [34]: > 100000 nM
- TGI [35]: > 100000 nM
- TGI [36]: > 100000 nM
- TGI [37]: > 100000 nM
- TGI [38]: > 100000 nM
- TGI [39]: > 100000 nM
- TGI [41]: > 100000 nM
- TGI [42]: > 100000 nM
- TGI [43]: > 100000 nM
- TGI [44]: > 100000 nM
- TGI [45]: > 100000 nM
- TGI [46]: > 100000 nM
- TGI [47]: > 100000 nM
- TGI [48]: > 100000 nM
- TGI [50]: > 100000 nM
- TGI [51]: > 100000 nM
- TGI [52]: > 100000 nM
- TGI [53]: > 100000 nM
- TGI [54]: > 100000 nM
